Measurements taken from patent publication US20110124609A1, “Method of Preventing Type I Diabetes” (Wisconsin Alumni Research Foundation, priority 2009, published 2011).
“Also recorded” adds a separate entry of the source. Blank lines part the entries; values can stand above or below the compound they belong to.

How the values were obtained:
NOD mice [1] = assay: 2AMD Type 1 Diabetes Prevention Study: diabetes incidence in NOD mice; format: in vivo, mouse; details: female NOD mice
Method: Diet. Breeding pairs were fed LabDiet™ Mouse Diet 5010 ad libitum (PMI Nutrition International, St. Louis, Mo.). Experimental mice were fed LabDiet™ Mouse Diet 5K52 meal form (PMI Nutrition International, St. Louis, Mo.). […] At eight weeks of age, mice were placed on 1 of 4 experimental diets: 1) chow, 2) 5010+50 ng 1,25(OH)2D3, or 3) 5010+200 pg and 4) 5010+300 pg 2AMD. In diets/treatments containing 1,25(OH)2D3 or 2AMD, the hormone was added to 1% Wesson® oil and mixed into the diet.
(§1) Evaluation of Diabetic Status. […] Whole blood was centrifuged to obtain serum.

[2] = 2AMD study: serum calcium analysis (atomic absorption); format: in vivo, mouse; details: 200 pg and 300 pg 2AMD per day in diet; NOD mice; over 30 weeks (FIG. 2)
From the text: Diet. Breeding pairs were fed LabDiet™ Mouse Diet 5010 ad libitum (PMI Nutrition International, St. Louis, Mo.). Experimental mice were fed LabDiet™ Mouse Diet 5K52 meal form (PMI Nutrition International, St. Louis, Mo.). […] Serum Calcium Analysis. Blood was collected from maxillary cheek of each mouse weekly from 8 weeks to 200 days of age.

[3] = 2AMD study: body weight of NOD mice; format: in vivo, mouse; details: 200 pg and 300 pg 2AMD per day in diet, over 200 days (FIG. 3)
From the text: Diet. Breeding pairs were fed LabDiet™ Mouse Diet 5010 ad libitum (PMI Nutrition International, St. Louis, Mo.). Experimental mice were fed LabDiet™ Mouse Diet 5K52 meal form (PMI Nutrition International, St. Louis, Mo.). […] Evaluation of Diabetic Status. […] Whole blood was centrifuged to obtain serum.

NOD mice [4] = assay: 2MD Type 1 Diabetes Prevention Study: diabetes incidence in NOD mice; format: in vivo, mouse; details: for Incidence of Type 1 Diabetes: female NOD mice
From the text: as §1

NOD mouse = details: of 1,25-(OH)2D3, Zella et al., 2003; cited from earlier work
cellular differentiation = details: background, 19-nor-analogs; cited from earlier work
[5] = background, 19-nor-analogs; cited from earlier work
[6] = 2MD study: body weight of NOD mice; details: for Weights: mean, n = 12, in g (unit assumed)
Method: Diet. […] At eight weeks of age, mice were then provided 1 of 4 experimental diets: diet 11 only or diet 11+50 ng 1,25(OH)2D3, diet 11 plus 400 ng 2 MP or diet 11+500 pg 2MD. All purified diets were supplemented with vegetable oil containing fat soluble vitamins A, E, D and K (Suda et al., 1970, J. Nutr. 100: 1049-1052 [diet 11]). In diets containing 1,25(OH)2D3, 2 MP or 2MD, the compounds were added to 1% Wesson® oil and mixed into the purified diet. Diets were fed in agar form (Hayes et al., 1987, J. Nutr. 117:857-865) at 3.5 g food/mouse/day and were replaced three times per week.
Evaluation of Diabetic Status. All experimental mice were weighed weekly and urinalysis was performed weekly starting at 10 weeks of age—Diastix® (Bayer, Elkhart, Ind.) were used to determine glucose levels. If a Diastix® reading was above 1000 mg/dl, the mice were bled from maxillary cheek following a four-hour fast. Whole blood was centrifuged to obtain serum. Concentration of glucose in serum was measured using a enzymatic-colorimetric assay (Glucose Liquicolor®, Stanbio Laboratory, Boerne, Tex.) followed by spectrophotometric analysis. Animals that had two fasting glucose analysis above 300 mg/dl were diagnosed as diabetic and sacrificed via CO2 asphyxiation.

[7] = 2MD study: serum calcium analysis (atomic absorption); details: for serum calcium: NOD mice; for Serum Calcium Levels: mean, n = 12, in mg/dL (unit assumed)
Method: Diet. […] Female pups were weaned at three weeks and placed immediately on a purified diet (Suda et al., 1974, J. Nutr. 100: 1049-1052). At eight weeks of age, mice were then provided 1 of 4 experimental diets: diet 11 only or diet 11+50 ng 1,25(OH)2D3, diet 11 plus 400 ng 2 MP or diet 11+500 pg 2MD. All purified diets were supplemented with vegetable oil containing fat soluble vitamins A, E, D and K (Suda et al., 1970, J. Nutr. 100: 1049-1052 [diet 11]). In diets containing 1,25(OH)2D3, 2 MP or 2MD, the compounds were added to 1% Wesson® oil and mixed into the purified diet. Diets were fed in agar form (Hayes et al., 1987, J. Nutr. 117:857-865) at 3.5 g food/mouse/day and were replaced three times per week.
Serum Calcium Analysis. Blood was collected from maxillary cheek of each mouse at 6, 8, 9, 14.3, 15.3 and 28.6 weeks of age. Serum was separated by centrifugation and diluted 1:40 in a 0.1% LaCl2 solution. Calcium concentration was determined by atomic absorption spectrometry (Spectrometer 3110®, Perkin Elmer, Norwalk, Conn.).

[8] = Group 8, 0.5 ng 2MD, age 6 weeks
[9] = Group 8, 0.5 ng 2MD, age 8 weeks
[10] = Group 8, 0.5 ng 2MD, age 9 weeks
[11] = Group 8, 0.5 ng 2MD, age 14.3 weeks
[12] = Group 8, 0.5 ng 2MD, age 15.3 weeks
[13] = Group 8, 0.5 ng 2MD, age 28.6 weeks
[14] = Group 10, 400 ng 2MP, age 6 weeks
[15] = Group 10, 400 ng 2MP, age 8 weeks
[16] = Group 10, 400 ng 2MP, age 9 weeks
[17] = Group 10, 400 ng 2MP, age 14.3 weeks
[18] = Group 10, 400 ng 2MP, age 15.3 weeks
[19] = Group 10, 400 ng 2MP, age 28.6 weeks

Compound: 2α-methyl-19-nor-20(S)-1α,25-dihydroxyvitamin D3 [2AMD]
diabetes incidence at 200 days (FIG. 1) (NOD mice [1]; 200 pg and 300 pg 2AMD daily in diet, versus no treatment): statistically significant reduced incidence of diabetes | Type 1 diabetes disease incidence (NOD mice [1]; 200 pg and 300 pg 2AMD per day in 5010 diet, from 8 weeks to 200 days of age): 8% | serum calcium / hypercalcemia [2]: no statistically significant increase in serum calcium; also recorded: without hypercalcemia | body weight [3]: no statistically significant change in body weight; also recorded: not altered

Compound: C=C1/C(=C\C=C2/CCC[C@]3(C)[C@@H]([C@H](C)CCCC(C)(C)O)CC[C@@H]23)C[C@@H](O)C[C@@H]1O [1,25(OH)2D3, 1α,25-dihydroxy-vitamin D3]
protection against T1DM (NOD mice [1]; 50 ng 1,25(OH)2D3 per day in 5010 diet): completely protected | Incidence of Type 1 Diabetes (NOD mice [4]; 50 ng per day in diet 11, 200 days, n = 24): 4.2% | prevention of diabetes (NOD mice [4]; 50 ng/day 1,25(OH)2D3 in diet 11, NOD mice): prevented diabetes | prevention of Type 1 diabetes (NOD mouse): completely prevent Type 1 diabetes

Compound: C[C@H](CCCC(C)(C)O)[C@H]1CC[C@H]2/C(=C/C=C3C[C@@H](O)C[C@H](O)C3)CCC[C@]12C [1α,25-dihydroxy-19-nor-vitamin D3]
potency for inducing cellular differentiation (cellular differentiation): high potency | calcium mobilizing activity [5]: very low calcium mobilizing activity

Serum Calcium Levels [7, 8]: 11.42 | Serum Calcium Levels [7, 9]: 11.45 | Serum Calcium Levels [7, 10]: 11.55 | Serum Calcium Levels [7, 11]: 11.52 | Serum Calcium Levels [7, 12]: 11.33 | Serum Calcium Levels [7, 13]: 11.37
Compound: C=C1[C@H](O)CC(=C/C=C2\CCC[C@@]3(C)C2CCC3[C@@H](C)CCCC(C)(C)O)C[C@H]1O (stereo partly drawn) [2MD, 2-methylene-19-nor-20(S)-1,25-dihydroxyvitamin D3]
Incidence of Type 1 Diabetes (NOD mice [4]; 0.5 ng per day in diet 11, 200 days, n = 12): 0.0% | prevention of diabetes / diabetes incidence (FIG. 4) (NOD mice [4]; 0.5 ng/day 2MD in diet 11, NOD mice, 200 days): statistically significant reduced incidence of diabetes; also recorded: prevented diabetes | body weight (FIG. 5) ([6]; 0.5 ng 2MD per day in diet 11, NOD mice, over 200 days): no statistically significant change in body weight | Weights ([6]; Group 8, 0.5 ng 2MD, age 3 weeks): 13.33 | Weights [6, 8]: 21.87 | Weights [6, 9]: 23.78 | Weights [6, 10]: 24.94 | Weights [6, 11]: 27.85 | Weights [6, 12]: 27.82 | Weights [6, 13]: 29.51 | serum calcium ([7]; 0.5 ng 2MD per day in diet 11, over 30 weeks (FIG. 6)): no statistically significant increase in serum calcium; also recorded: moderate elevation of calcium

serum calcium ([7]; 400 ng 2 MP per day in diet 11): moderate elevation of calcium | Serum Calcium Levels [7, 14]: 11.57 | Serum Calcium Levels [7, 15]: 11.57 | Serum Calcium Levels [7, 16]: 11.55 | Serum Calcium Levels [7, 17]: 11.62 | Serum Calcium Levels [7, 18]: 11.77 | Serum Calcium Levels [7, 19]: 11.66
Compound: C=C1C(O)CC(=CC=C2CCCC3(C)C2CCC3C(C)C)CC1O (stereo not drawn) [2MP, 1α-hydroxy-2-methylene-19-nor-homopregnacalciferol, reference compound]
protection against diabetes (NOD mice [4]; 400 ng 2 MP per day in diet 11, NOD mice): no protection against diabetes | Incidence of Type 1 Diabetes (NOD mice [4]; 400 ng per day in diet 11, 200 days, n = 12): 33.0% | Weights ([6]; Group 10, 400 ng 2MP, age 3 weeks): 13.60 | Weights [6, 14]: 22.03 | Weights [6, 15]: 23.74 | Weights [6, 16]: 24.63 | Weights [6, 17]: 26.30 | Weights [6, 18]: 26.81 | Weights [6, 19]: 27.64
